{"source": "paper PMC8329336", "about": "“The Role of Co-Signaling Molecules in Psoriasis and Their Implications for Targeted Treatment” (Frontiers in Pharmacology, 2021)", "origin": "cited, not measured here", "molecules": {"B1": {"name": "Bleselumab: fully human IgG4 monoclonal antibody (mAb) that targets CD40 (antibody, chains of the INN, looked up, V domains shown)", "VH": "QLQLQESGPGLLKPSETLSLTCTVSGGSISSPGYYGGWIRQPPGKGLEWIGSIYKSGSTYHNPSLKSRVTISVDTSKNQFSLKLSSVTAADTAVYYCTRPVVRYFGWFDPWGQGTLVTVSS", "VL": "AIQLTQSPSSLSASVGDRVTITCRASQGISSALAWYQQKPGKAPKLLIYDASNLESGVPSRFSGSGSGTDFTLTISSLQPEDFATYYCQQFNSYPTFGQGTKVEIK"}}, "key": {"[1]": {"test_system": "ICAM-1", "set-up": "method as in Wen et al., 2014; Xiong et al., 2015", "settings": "ref Wen et al., 2014; Xiong et al., 2015"}, "[2]": {"test_system": "p40 subunits of IL-23 and IL-12", "set-up": "method as in Lebwohl et al., 2015", "settings": "through binding to the p40 subunits of IL-23 and IL-12; ref Lebwohl et al., 2015"}, "[3]": {"test_system": "human T cells", "set-up": "method as in Kuschei et al., 2011", "settings": "ref Kuschei et al., 2011"}, "[4]": {"test_system": "LFA-1", "settings": "led to withdrawal from the US market in 2009; ref Kuschei et al., 2011; Hsu and Tsai, 2020"}, "[5]": {"test_system": "LFA-1", "set-up": "method as in Guttman-Yassky et al., 2008; Grönholm et al., 2016", "settings": "ref Guttman-Yassky et al., 2008; Grönholm et al., 2016"}, "[6]": {"test_system": "OX40"}, "[7]": {"test_system": "CD40", "settings": "for Efficacy (PASI scores of psoriasis) / Adverse event: patients with psoriasis, ref Anil Kumar et al. (2018); for Efficacy (PASI scores of psoriasis): Phase I; for Adverse event: limited number of patients"}, "[8]": {"settings": "Phase I, ref Papp et al. (2017)"}}, "note": "Like-named read-outs stand apart in the source and are kept apart here.", "data": [{"molecule": "CC(C)=CCC[C@]1(C)C=Cc2c(O)c3c(c(CC=C(C)C)c2O1)O[C@]12C(=C[C@@H]4C[C@H]1C(C)(C)O[C@@]2(C/C=C(/C)C(=O)O)C4=O)C3=O", "note": "[gambogic acid]", "values": [{"measurement": "effect on psoriasis", "setting": "[1]", "result": "improve"}, {"measurement": "expression of ICAM-1", "setting": "[1]", "result": "inhibiting"}]}, {"molecule": "CC1(C)[C@@H](O[C@H]2O[C@H](C(=O)O)[C@@H](O)[C@H](O)[C@H]2O[C@@H]2O[C@H](C(=O)O)[C@@H](O)[C@H](O)[C@H]2O)CC[C@]2(C)[C@H]3C(=O)C=C4[C@@H]5C[C@@](C)(C(=O)O)CC[C@]5(C)CC[C@@]4(C)[C@]3(C)CC[C@@H]12", "note": "[glycyrrhizin]", "values": [{"measurement": "effect on psoriasis", "setting": "[1]", "result": "improve"}, {"measurement": "expression of ICAM-1", "setting": "[1]", "result": "inhibiting"}]}, {"molecule": "Anti-p40: approved drug for psoriasis treatment, binds to the p40 subunits of IL-23 and IL-12", "values": [{"measurement": "IL-23A-induced IL-17A production", "setting": "[2]", "result": "inhibit"}]}, {"molecule": "Efalizumab: humanized monoclonal antibody against LFA-1", "values": [{"measurement": "co-stimulatory molecules ICOS, OX40, CD27, and 4-1BB", "setting": "[3]; human T cells", "result": "downregulating"}, {"measurement": "proliferation and cytokine production of human T cells", "setting": "[3]", "result": "potently inhibiting"}, {"measurement": "Adverse event", "setting": "[4]", "result": "Progressive multifocal leukoencephalopathy"}, {"measurement": "cell-surface molecules involved in T cell activation (CD3, TCR, CD4, CD8, CD28, integrin VLA-4)", "setting": "[5]", "result": "downregulate"}]}, {"molecule": "KHK4083: fully human monoclonal antibody against OX40", "values": [{"measurement": "Adverse event", "setting": "[6]; [8]", "result": "Mild or moderate chills, infusion site reactions"}, {"measurement": "PASI scores", "setting": "[6]; [8]", "result": "PASI scores↓"}, {"measurement": "efficacy", "setting": "[6]; highest dose (10 mg/ kg), patients with mild to moderate plaque psoriasis, ref Papp et al., 2017", "result": "good efficacy"}, {"measurement": "safety and tolerability", "setting": "[6]; phase I study, ref Papp et al., 2017", "result": "safe and well tolerated"}]}, {"molecule": "B1", "values": [{"measurement": "clinically malignant events", "setting": "[7]; as compared to CD40L-specific mAbs, ref Anil Kumar et al., 2018", "result": "no clinically malignant events"}, {"measurement": "Efficacy (PASI scores of psoriasis)", "setting": "[7]", "result": "Ineffective"}, {"measurement": "Efficacy (PASI scores of psoriasis)", "setting": "[7]; listed as bleselumab", "result": "did not improve"}, {"measurement": "Adverse event", "setting": "[7]", "result": "Transient elevations of liver transaminase enzymes"}, {"measurement": "Adverse event", "setting": "[7]; listed as bleselumab", "result": "transient elevations in liver transaminase enzymes"}]}]}
